The results in this text go back to patent US9067923B2, “Substituted quinoxalines” (Kyowa Hakko Kirin Co., Ltd., priority 2011, dated 2015).

The subject of series [1] is production of kynurenine in human gastric cancer cell line KATO-III. Kind of series: Inhibitory activity on the production of kynurenine (IFN-γ-treated KATO-III cells). Type of series: cell-based. The note with it: 10 μmol/L test compound, KATO-III cells treated with IFN-γ, 96 hours. On the procedure: This assay was performed by a modification of the method described in J. Biol. Chem., vol. 263, pp. 2041-2048 ([…]). For culture of the human gastric cancer cell line […], RPMI 1640 (GIBCO, 11875) supplemented with 10 vol % FBS (GIBCO, 10091-148, lot. 665285) was used. One μL of a test substance in a DMSO solution was diluted with 199 μL of the culture medium and placed in wells of a 384-well plate (10 μL/well). Next, IFN-γ (Sigma, I-3265) was added to a fresh culture medium to a concentration of 31.25 ng/mL, and KATO-III cells were suspended at 50,000 cells/mL in the culture medium. Forty μL of the suspension was added to each well (2,000 cells/well) and cultured under 5% CO2 at 37° C. for 96 hours. The final concentration of DMSO was limited to 0.1 vol % or less so that DMSO itself may not affect the kynurenine concentration measured in this assay. After the culture, 10 μL of a 30 w/v % aqueous trichloroacetic acid solution was added to each well, and incubation was performed at 65° C. for 30 minutes. The plate was centrifruged at 2,500×g for 5 minutes and 15 μL of the supernatant in each well was transferred into another 384-well plate. To the transferred supernatant, 15 μL of a 2 w/v % solution of p-dimethylaminobenzaldehyde in acetic acid was added, incubation was performed at 65° C. for 20 minutes and the absorbance was measured at 480 nm.
Sample: the absorbance value of the well to which DMSO solution containing a test substance was added and in which the cells were treated with IFN-γ.
Blank: the absorbance value of the well to which DMSO not containing a test substance was added and in which the cells were treated with IFN-γ.
Control: the absorbance value of the well to which DMSO not containing a test substance was added and in which the cells were not treated with IFN-γ.
The inhibition % of each test compound was calculated by formula A1.
In this assay, the expression of IDO in KATO-III cells is induced by IFN-γ treatment, and kynurenine in the culture medium is quantified. The kynurenine concentration in a culture medium is known to increase in proportion to the enzymatic activity of intracellular IDO (for example, J. Biol. Chem., vol. 263, pp. 2041-2048 (1988)). […] The production of kynurenine is known to be inhibited by IDO inhibitors (for example, J. Clin. Invest., vol. 117, No. 5, pp. 1147-1154 ([…])), and thus it is speculated that compounds (I) also have an inhibitory effect on IDO.

For another series, the system named is CYP3A4. Kind of series: Induction of CYP3A4 using HepaRG cells (midazolam metabolizing activity). Type of series: in vitro ADME. The note with it: 1 μmol/L test compound, 72 hours, 1'-hydroxymidazolam formation relative to DMSO negative control. On the procedure:
CYP3A4-inducing activity was evaluated using HepaRG cells (Biopredic international). HepaRG cells were suspended in a medium at a concentration of 0.72×10^6 cells/mL and added in a volume of 100 μL to each well of a 96-well collagen coated plate (Biopredic international). The medium used for seeding HepaRG cells was HepaRG Thawing and Seeding Medium 670 (Biopredic international) and the medium used during treatment with a test compound was HepaRG Serum-free Induction Medium 650 (Biopredic international). Three days after the seeding of HepaRG cells, treatment with a test compound was started. After 200 μL of HepaRG Serum-free Induction Medium 650 was added to each well of the 96-well, collagen plate, a test compound dissolved in dimethylsulfoxide (DMSO) was added in a volume of 0.5 μL to each well so that the final concentration was 1 μmol/L. The well to which only DMSO was added was used as a negative control. The medium in the wells containing the test compound was replaced every 24 hours and the treatment with the test compound was continued for 72 hours. The fourth day after the start of the treatment with the test compound, midazolam, which is a typical substrate for CYP3A4, was added and CYP3A4-inducing activity was evaluated by measuring changes in the metabolic activity. The medium was removed by suction and each well was washed twice with PBS (150 μL/well) warmed to 37° C. HepaRG Serum-free Induction Medium 650 containing 20 μmol/L midazolam was warmed to 37° C. and added in a volume of 100 μL to each well. The plate was incubated in a CO2 incubator for 2 hours. At the end of the reaction, 70 μL of the reaction medium was recovered from each well and mixed with 70 μL of a methanol solution containing an internal standard (propranolol, 2 μmol/L). The mixture was centrifuged (at 5000×g at 4° C. for 10 minutes) and the supernatant was used as an analysis sample. The midazolam metabolizing activity was evaluated by measuring the amount of a produced metabolite by CYP3A4, 1′-hydroxymidazolam, by means of a liquid chromatograph-tandem mass spectrometry (LC-MS/MS). Agilent 1100 series (Agilent technologies) was used as the LC device, API2000 (AB sciex) was used as the MSMS device, and HTC PAL (CTC analytics) was used as the autosampler. CAPCELL PAK C18 ACR column (3 μm, 3 mm (I. D.)×35 mm, purchased from Shiseido Co., Ltd.) was used as the analytical column. The mobile phase A was 10 mmol/L aqueous ammonium acetate solution and the mobile phase B was methanol. The gradient conditions were 0 min (B=30%), 0.2 min (B=30%), 2.2 min (B=95%), 4 min (B=95%), 4.01 min (B=30%), 5 min (B=30%). The flow rate was 0.6 mL/min and the sample injection volume was 30 μL. The ions were detected by atmospheric pressure ionization mode using the MSMS device. The detection was performed by multiple reaction monitoring and the 1′-hydroxy midazolam ions were detected at m/z (precursor ion>product ion)=342.1>168.2.
The fold induction by each test compound was determined by using formula A2 below, which is for calculating the fold induction as the ratio of the metabolic activity in the test compound-treatment group to that of the negative control group (DMSO-treatment group).

`CCCS(=O)(=O)Nc1nc2ccccc2nc1OC(c1ccc(-c2noc(C3CC3)n2)nc1)C(F)(F)F` (stereo not shown) [Compound 25, N-(3-(1-(6-(5-cyclopropyl-1,2,4-oxadiazol-3-yl)pyridin-3-yl)-2,2,2-trifluoroethoxy)quinoxalin-2-yl)propane-1-sulfonamide]: the inhibition at 10 µM in series [1] was not below 80%. Moreover, the Fold induction in the series on CYP3A4 turned out to be 1.41.

Turning to `COCCS(=O)(=O)Nc1nc2ccccc2nc1OC(c1ccc(-c2noc(C)n2)nc1)C(F)(F)F` (stereo not shown) [Compound 27, 2-methoxy-N-(3-(2,2,2-trifluoro-1-(6-(5-methyl-1,2,4-oxadiazol-3-yl)pyridin-3-yl)ethoxy)quinoxalin-2-yl) ethanesulfonamide], in the series with CYP3A4, the Fold induction turned out to be 1.21.

In turn, `CCCS(=O)(=O)Nc1nc2ccccc2nc1O[C@H](c1ccc(-c2noc(C)n2)nc1)C(F)(F)F` [Compound 28, (R)-N-(3-(2,2,2-trifluoro-1-(6-(5-methyl-1,2,4-oxadiaxol-3-yl)pyridin-3-yl)ethoxy)quinoxalin-2-yl)propane-1-sulfonamide] showed a Fold induction in the series with CYP3A4 of 1.27.

As for `COCCS(=O)(=O)Nc1nc2ccccc2nc1O[C@H](c1ccc(-c2cnco2)nc1)C(F)(F)F` [Compound 30, (R)-2-methoxy-N-(3-(2,2,2-trifluoro-1-(6-(oxazol-5-yl)pyridin-3-yl)ethoxy)quinoxalin-2-yl)ethanesulfonamide], in series [1], the inhibition at 10 µM is not below 80%. This compound also registered a Fold induction with CYP3A4 of 1.12.

On to `COCCS(=O)(=O)Nc1nc2ccccc2nc1O[C@H](c1ccc(-c2noc(C3CC3)n2)nc1)C(F)(F)F` [Compound 37, (R)-N-(3-(1-(6-(5-cyclopropyl-1,2,4-oxadiasol-3-yl)pyridin-3-yl)-2,2,2-trifluoroethoxy)quinoxalin-2-yl)-2-methoxyethanesulfonamide], for which, in the series on CYP3A4, the Fold induction was 1.33.

What is called inhibition is the share of the control response that was lost under treatment. Lower therefore signals a weak effect.
